pIC50: −log10 of the molar value. Values joined by “and” are separate entries in the source; they are usually repeats but may differ in a detail not shown here. Equal values may be shown once. “Also recorded” adds a separate entry of the source.
What was measured:
[1] = system: Ptch+/−Hic+/− medulloblastoma allograft; assay: combination of Smo inhibitor and PI3K inhibitor in Ptch+/−Hic+/− medulloblastoma allograft model; format: in vivo, mouse
Text: Mouse medulloblastoma cells (1.0-5.0×10^6), dissociated directly from tumor fragments originally derived from spontaneously arising medulloblastomas in Ptch+/-p53-/-, Ptch+/-Hic+/- or Ptch+/- mice, were inoculated subcutaneously into the right flank of Harlan nu/nu mice. Treatment was initiated approximately 7-10 days post implantation. Animals were randomized into treatment groups with similar mean tumor volumes that ranged from approximately 250-300 mm3. Tumor volumes (mm3) and body weights (g) were recorded two or three times per week from all groups for analysis. Dose was body weight adjusted at time of dosing. Comparisons between treatment groups was performed using a non-parametric Kruskal-Wallis/Wilcoxon Rank Sum Test. Tumors were calipered in two dimensions, and the volumes were calculated using the formula: (length×width2)/2, where length is the longer of the two measurements and width is the shorter one. […] A partial responder (PR) was defined as an animal whose tumor was less than 50% of the initial tumor volume by the end of the study. An animal with no palpable tumor by the end of study is defined as a complete responder (CR). Next, a combination of Compound 1 and Compound A was explored in the Ptch+/-Hic+/- medulloblastoma allograft model. […] Animals treated with vehicle control and with compound A had to be sacrificed around day 20 and 25, respectively, because their tumor volume reached 1500 mm3. […] Similar results were obtained for animals treated with Compound 1 alone for the first 10 days, followed by single agent treatment with Compound A (data not shown). […] Next, a combination of Compound 1 and Compound B was explored in the Ptch+/-Hic+/- medulloblastoma allograft model. […] Animals treated with vehicle control and with compound B reached the endpoint around day 12 to 15, respectively, because their tumor volume reached 700 mm3.

[2] = system: resistant medulloblastoma tumor cells; assay: ex-vivo medulloblastoma proliferation assay (3H thymidine, 48 h), resistant tumor cells; format: cell-based, mouse
Experimental: (§1) The effect of statins (e.g., simvastatin, flustatin) on the proliferation of medulloblastoma cells derived from sensitive and resistant Ptch+/− cells was evaluated by using an “ex-vivo medulloblastoma proliferation assay.” Using Ptch+/−p53−/−, Ptch+/−Hic+/− or Ptch+/− medulloblastoma tumors freshly harvested from allografted nude mice, we have developed a short-term 48 h proliferation assay that enables us to assess the in vitro potency of Smo inhibitors. The read-out for proliferation uses incorporation of 3H thymidine. The assay reflects the in vivo sensitivity of tumor cells to Compound 1.
(§2) The effect of PI3K inhibitors (e.g., compounds such as Compound A) on the proliferation of medulloblastoma cells derived from sensitive and resistant medulloblastoma cells was evaluated by using an “ex-vivo medulloblastoma proliferation assay,” as described above.

[3] = system: sensitive medulloblastoma tumor cells; assay: ex-vivo medulloblastoma proliferation assay (3H thymidine, 48 h), sensitive tumor cells; format: cell-based; details: Mus musculus, Sensitive tumor, Table 3
Experimental: as §1, §2

[4] = system: Akt and S6 phosphorylation; assay: Western blot of ex-vivo medulloblastoma assay; format: cell-based, mouse; details: sensitive and resistant cells, FIG. 5
[5] = system: Ptch+/−p53−/− medulloblastoma allograft; assay: Ptch+/−p53−/− medulloblastoma allograft model, continuous dosing; format: in vivo, mouse; details: 100 mg/kg bid, 25 days, FIG. 1
Text: (§3) Mouse medulloblastoma cells (1.0−5.0×10^6), dissociated directly from tumor fragments originally derived from spontaneously arising medulloblastomas in Ptch+/−p53−/−, Ptch+/−Hic+/− or Ptch+/− mice, were inoculated subcutaneously into the right flank of Harlan nu/nu mice. Treatment was initiated approximately 7-10 days post implantation. Animals were randomized into treatment groups with similar mean tumor volumes that ranged from approximately 250-300 mm3. Tumor volumes (mm3) and body weights (g) were recorded two or three times per week from all groups for analysis. Dose was body weight adjusted at time of dosing. Comparisons between treatment groups was performed using a non-parametric Kruskal-Wallis/Wilcoxon Rank Sum Test.
Tumors were calipered in two dimensions, and the volumes were calculated using the formula: (length×width2)/2, where length is the longer of the two measurements and width is the shorter one. Percent treatment/control (% T/C) values were calculated using the following formula: % T/C=100×ΔTf−i/ΔCf−i if ΔTf−i>0, % T/T0=100×ΔTf−i/T0 if ΔTf−i<0 (regression). A partial responder (PR) was defined as an animal whose tumor was less than 50% of the initial tumor volume by the end of the study. An animal with no palpable tumor by the end of study is defined as a complete responder (CR). […]

[6] = system: Ptch+/− medulloblastoma allograft; assay: Ptch+/− medulloblastoma allograft model, continuous dosing; format: in vivo, mouse; details: 100 mg/kg bid, day 48
Text: as §3
(§4) Tumors were calipered in two dimensions, and the volumes were calculated using the formula: (length×width2)/2, where length is the longer of the two measurements and width is the shorter one. Percent treatment/control (% T/C) values were calculated using the following formula: % T/C=100×ΔTf−i/ΔCf−i if ΔTf−i>0, % T/T0=100×ΔTf−i/T0 if ΔTf−i<0 (regression). A partial responder (PR) was defined as an animal whose tumor was less than 50% of the initial tumor volume by the end of the study. An animal with no palpable tumor by the end of study is defined as a complete responder (CR).
Treatments started on day 7 post implantation (5 million cells/animal). Compound 1 was administered po at 10 mg/kg qd, 20 mg/kg qd, 40 mg/kg qd, 80 mg/kg qd and 160 mg/kg qd for the length of study. Compound 2 was administered at 100 mg/kg bid for the length of study. Vehicle control of Compound 1 was 0.5% methylcellulose 0.5% Tween 80 in water. The initial group size consisted of 8 animals. The vehicle group was taken down 7 days after treatment (tumors greater than 10% of mouse body weight). Similar resistance was seen to that observed with the Ptc+/−Hic+/− model, with a subset of the complete responders growing back and others showing complete regression (Table 2). Sustained regression listed in Table 2 represent number of complete regressions still present at the end of study on day 48.

[7] = system: Ptch+/−Hic+/− medulloblastoma allograft; assay: Ptch+/−Hic+/− medulloblastoma allograft model, continuous dosing; format: in vivo, mouse; details: for number of sustained complete regressions: dosed day 10 to day 56, day 56
Text: as §3, §4
Treatments started on day 7 post implantation (5 million cells/animal). Compound 1 was administered po at 5 mg/kg bid, 10 mg/kg bid, 20 mg/kg qd, 20 mg/kg bid, 40 mg/kg bid and 80 mg/kg bid for the length of study. Compound 2 was administered at 100 mg/kg bid for the length of study. Vehicle control of Compound 1 was 0.5% methylcellulose 0.5% Tween 80 in water. The initial group size consisted of 8 animals. The vehicle group was taken down 10 days after treatment (tumors greater than 10% of mouse body weight).
Sustained regressions listed in the Table 1 represent number of complete responses still present at the end of study on day 47.
Two additional Smo inhibitors, Compound 3 and Compound 4 were evaluated in follow-up studies in the Ptch+/−Hic+/− model upon continous dosing.

[8] = Mus musculus, Resistant tumor, Table 3

In the case of `Nc1cc(C(F)(F)F)c(-c2cc(N3CCOCC3)nc(N3CCOCC3)n2)cn1` [Compound A, 5-(2,6-di-morpholin-4-yl-pyrimidin-4-yl)-4-trifluoromethyl-pyridin-2-ylamine], the “effect on tumor growth” value ([1]; 60 mg/kg qd, FIG. 6A) was “only a moderate effect on tumor growth compared to vehicle control”, the “time to endpoint (tumor volume >1500 mm3)” value ([1]; 60 mg/kg qd, FIG. 6B) was roughly 25 days and the pIC50 [2, 8] was 6.66. The pIC50 ([2]; Mus musculus, ptch+/− Hic+/−, Resistant, Table 4) was 6.52, the pIC50 ([2]; ptch+/− Hic+/−, Resistant, Table 4) was 6.77 and 6.82 and the “inhibition of proliferation, sensitive compared with resistant tumors” value ([2]; sensitive and resistant tumors) was “inhibited both sensitive and resistant tumors with similar IC50s”. For the same compound, the pIC50 [3] was 6.70 and the “inhibition of Akt and S6 phosphorylation” value [4] was “inhibits Akt and S6 phosphorylation in both sensitive and resistant cells; also recorded: inhibited Akt and S6 phosphorylation both in sensitive and resistant tumors at similar concentrations”.

In the case of `Cn1c(=O)n(-c2ccc(C(C)(C)C#N)cc2)c2c3cc(-c4cnc5ccccc5c4)ccc3ncc21` [Compound B, 2-methyl-2-[4-(3-methyl-2-oxo-8-quinolin-3-yl-2,3-dihydro-imidazo[4,5-c]quinolin-1-yl)-phenyl]-propionitrile], the “effect on tumor growth” value ([1]; 40 mg/kg qd, FIG. 7A) was “no effect on tumor growth compared to vehicle control” and the “time to endpoint (tumor volume >700 mm3)” value ([1]; 40 mg/kg qd, FIG. 7B) was roughly 15 days.

`CCC(C)(C)C(=O)O[C@H]1C[C@@H](C)C=C2C=C[C@H](C)[C@H](CC[C@@H]3C[C@@H](O)CC(=O)O3)[C@H]21` [Simvastatin, reference compound] was tested, and the pIC50 [2, 8] was 8.40 and the pIC50 [3] was 8.40.

`COc1cc(OC)cc(C(=O)Nc2ccc(Cl)c(-c3nc4cc(N(C)C)ccc4[nH]3)c2)c1` [Compound 2, N-[4-Chloro-3-(5-dimethylamino-1H-benzoimidazol-2-yl)-phenyl]-3,5-dimethoxy-benzamide, reference compound] was tested, and the “tumor response on continuous dosing” value [5] was “initially caused regression, followed by tumor regrowth”, the “sustained regressions (complete regressions still present at end of study)” value [6] was 0/8 and the “sustained regressions (complete responses still present at end of study)” value ([7]; 100 mg/kg bid po, day 47) was 0/8.

`Cc1c(Cc2ccccc2)nnc(N2CCN(c3cnc(C(C)(C)O)cn3)[C@H](C)C2)c1C` [Compound 3, 2-[(R)-4-(6-Benzyl-4,5-dimethyl-pyridazin-3-yl)-2-methyl-3,4,5,6-tetrahydro-2H-[1,2]bipyrazinyl-5′-yl]-propan-2-ol] was tested, and the “number of sustained complete regressions” value ([7]; 40 mg/kg bid) was 3/8, the “number of sustained complete regressions” value ([7]; 40 mg/kg qd) was 0/8 and the “number of sustained complete regressions” value ([7]; 60 mg/kg qd) was 0/8. The “number of sustained complete regressions” value ([7]; 80 mg/kg qd) was 0/8, the “number of sustained complete regressions” value ([7]; 100 mg/kg qd) was 3/8 and the “tumor response on continuous dosing” value ([7]; follow-up studies, continuous dosing) was “initially induced tumor regression followed by tumor regrowth in the presence of compound”.
